Experiments:
Assay type in all cases: cell-based
[1] = test system: human oral cancer OECM-1 cells; assay: Viability of human oral cancer OECM-1 cells, Trypan blue exclusion; settings: 5˜20 μg/ml, 24 h
Procedure: (§1) Human oral cancer cell line SAS cells (FIG. 1A) or OECM-1 cells (FIG. 1B) were incubated for 24 h with ginsenoside M1 (5˜20 μg/ml), ginsenoside Rh2 (5˜20 μg/ml) or vehicle (0.1% DMSO). The live cell numbers were counted by Trypan blue exclusion method. The data were expressed as mean±SD; n=3. *, ** and *** indicate a significant difference at the level of p<0.05, p<0.01 and p<0.001, respectively, compared to vehicle-control cells. (One-way ANOVA with Dunnett's multiple comparisons test).
(§2) Plate 5×10^5 human oral cancer cells SAS per 6-cm dish in 2 ml of culture medium and were grown overnight at 37° C. in a 5% CO2 incubator. The cells were incubated for 24 h with ginsenoside M1 (5˜20 μg/ml), ginsenoside Rh2 (5˜20 μg/ml) or vehicle. Each group contains a final DMSO concentration of 0.1%. Thereafter, the cell numbers were counted by Trypan blue exclusion method. […] The data were expressed as mean±SD; n=3. *, ** and *** indicate a significant difference at the level of p<0.05, p<0.01 and p<0.001, respectively, compared to vehicle-control cells. (One-way ANOVA with Dunnett's multiple comparisons test).

[2] = test system: human oral cancer cells OECM-1; assay: PI/Annexin V double staining assay by flow cytometry; settings: 24 h
Procedure: (§3) Human oral cancer cell line OECM-1 cells were incubated for 24 h with ginsenoside M1 (10˜20 μg/ml), 50 μM cistaplatin (CDDP) or vehicle (0.1% DMSO). (FIG. 3A) The apoptotic DNA breaks was assayed by terminal deoxynucleotidyl transferase dUTP nick end labeling (TUNEL) assay using flow cytometry. (FIG. 3B) The cell cycle distribution was determined by PI staining using flow cytometry. (FIG. 3C) The apoptosis level was measured by PI/Annexin V double staining assay using flow cytometry. (FIG. 3D) The activation levels of caspase-9 and caspase-3 were measured by detecting the degradation of pro-caspase-9 and pro-caspase-3 using Western blotting. […] (One-way ANOVA with Dunnett's multiple comparisons test).
(§4) To gain further insight into the mode of action of ginsenoside M1, three assays targeting hallmarks of apoptosis, namely (1) the apoptotic DNA breaks assayed by terminal deoxynucleotidyl transferase dUTP nick end labeling (TUNEL) assay, (2) the cell cycle assayed by flow cytometry after propidium iodide (PI)-staining nuclei, (3) the PI/Annexin V double staining assay, and (4) caspase activation were performed. Plate 1×10^6 human oral cancer cells OECM-1 per 6-cm dish in 2 ml of culture medium and were grown overnight at 37° C. in a 5% CO2 incubator. The cells were incubated for 24 h with ginsenoside M1 (10˜20 μg/ml), 50 μM cistaplatin (CDDP) or vehicle. Each group contains a final DMSO concentration of 0.1%. Thereafter, three assays were performed. […] The cells in sub-G1 phase increased after treatment with ginsenoside M1 and CDDP. (FIG. 3B). […] The data were expressed as mean±SD; n=3. ** and *** indicate a significant difference at the level of p<0.01 and p<0.001, respectively, compared to vehicle-control cells. (One-way ANOVA with Dunnett's multiple comparisons test).

[3] = test system: normal human gingival epithelioid cell line SG; assay: Toxicity to normal human gingival epithelioid SG cells, Trypan blue exclusion; settings: 20 μg/ml, 24 h
Procedure: as §1, with “normal human gingival epithelioid” for “oral cancer”, “SG” for “SAS”, “cells” for “cells (FIG. 1A) or OECM-1 cells (FIG. 1B)”, “n=3.” for “n=3. *,”, “of” for “of p<0.05,”
as §2, with “5×10^5 normal” for “5×10^5”, “gingival epithelioid cell line SG” for “oral cancer cells SAS”, “n=3.” for “n=3. *,”, “of” for “of p<0.05,”

[4] = test system: human oral cancer cells OECM-1; assay: Apoptotic DNA breaks, TUNEL assay by flow cytometry; settings: 24 h
Procedure: as §3, §4

CC(C)=CCC[C@](C)(O[C@@H]1OC(CO)[C@@H](O)[C@@H](O)C1O)[C@H]1CC[C@]2(C)C1[C@H](O)CC1[C@@]3(C)CC[C@H](O)C(C)(C)C3CC[C@]12C (stereo partly drawn) [ginsenoside M1, 20-O-β-D-glucopyranosyl-20(S)-protopanaxadiol]
cell numbers of human oral cancer OECM-1 cells [1]: dose-dependently inhibited | percentage of OECM-1 cells with PI/Annexin V double positive staining ([2]; 10 μg/ml): not 10 μg/ml ginsenoside M1 significantly increased | percentage of OECM-1 cells with PI/Annexin V double positive staining ([2]; 20 μg/ml): significantly increased | reduction of SG cell number compared to control cells [3]: 50% | apoptotic DNA breaks in OECM-1 cells ([4]; 10 μg/ml): not 10 μg/ml ginsenoside M1 significantly induced | apoptotic DNA breaks in OECM-1 cells ([4]; 20 μg/ml): significantly induced

Source: US11524021B2, “Use of ginsenoside M1 for manufacturing medicament for treating oral cancer” (priority 2018, dated 2022)
